# The supplement of paper PMC10307832
# Legend:
# Assay in all cases: relative viability (nuclei count vs DMSO), 5 days (fraction); higher = more cells survive
# NCI-H650 = system: NCI-H650
# Method in brief: (§1)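 Dosing by pin tool came one day after lung cancer cell lines were seeded in 1536-well plates, using either one drug or a fixed anchor-drug dose plus five library-drug doses (not always all listed) in √10 steps. After 5 days, nuclei were counted on 4× images. Relative viability is treated-well nuclei count divided by vehicle-well nuclei count, and values are medians of duplicate plates.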
# LOU-NH91 = system: LOU-NH91
# Method in brief: as §1
# HCC-78 = system: HCC-78
# Method in brief: as §1
# NCI-H838 = system: NCI-H838
# Method in brief: as §1
# NCI-H1734 = system: NCI-H1734
# Method in brief: as §1
# NCI-H1395 = system: NCI-H1395
# Method in brief: as §1
# NCI-H1915 = system: NCI-H1915
# Method in brief: as §1
# NCI-H2023 = system: NCI-H2023
# Method in brief: as §1
# A-427 = system: A-427
# Method in brief: as §1
# NCI-H661 = system: NCI-H661
# Method in brief: as §1
# NCI-H3122 = system: NCI-H3122
# Method in brief: as §1
# NCI-H596 = system: NCI-H596
# Method in brief: as §1
# HOP-62 = system: HOP-62
# Method in brief: as §1
# SK-MES-1 = system: SK-MES-1
# Method in brief: as §1
# HCC-366 = system: HCC-366
# Method in brief: as §1
# NCI-H358 = system: NCI-H358
# Method in brief: as §1
# COR-L23 = system: COR-L23
# Method in brief: as §1
# EKVX = system: EKVX
# Method in brief: as §1
# NCI-H1650 = system: NCI-H1650
# Method in brief: as §1
# NCI-H2087 = system: NCI-H2087
# Method in brief: as §1
# HCC-44 = system: HCC-44
# Method in brief: as §1
# EPLC-272H = system: EPLC-272H
# Method in brief: as §1
# ChaGo-K-1 = system: ChaGo-K-1
# Method in brief: as §1
structure (smiles),measurement,setting,value
Cc1cnc(-c2cnc(NCCNc3ccc(C#N)cn3)nc2-c2ccc(Cl)cc2Cl)[nH]1 + CS(=O)(=O)CCNCc1ccc(-c2ccc3ncnc(Nc4ccc(OCc5cccc(F)c5)c(Cl)c4)c3c2)o1 [Lapatinib] (partner 2 µM),relative viability,NCI-H650; first compound 0.08 µM,0.926
same,relative viability,NCI-H650; first compound 0.253 µM,1.12
same,relative viability,NCI-H650; first compound 0.8 µM,0.478
same,relative viability,NCI-H650; first compound 2.53 µM,0.789
same,relative viability,LOU-NH91; first compound 0.08 µM,0.811
same,relative viability,LOU-NH91; first compound 0.253 µM,0.738
same,relative viability,LOU-NH91; first compound 0.8 µM,0.739
same,relative viability,LOU-NH91; first compound 2.53 µM,0.866
same,relative viability,HCC-78; first compound 0.08 µM,0.449
same,relative viability,HCC-78; first compound 0.253 µM,0.528
same,relative viability,HCC-78; first compound 0.8 µM,1.12
same,relative viability,HCC-78; first compound 2.53 µM,0.546
same,relative viability,NCI-H838; first compound 0.08 µM,1.12
same,relative viability,NCI-H838; first compound 0.253 µM,0.858
same,relative viability,NCI-H838; first compound 0.8 µM,1.11
same,relative viability,NCI-H838; first compound 2.53 µM,1.27
same,relative viability,NCI-H1734; first compound 0.08 µM,1.13
same,relative viability,NCI-H1734; first compound 0.253 µM,0.901
same,relative viability,NCI-H1734; first compound 0.8 µM,0.882
same,relative viability,NCI-H1734; first compound 2.53 µM,1.05
same,relative viability,NCI-H1395; first compound 0.08 µM,1.04
same,relative viability,NCI-H1395; first compound 0.253 µM,0.776
same,relative viability,NCI-H1395; first compound 0.8 µM,1.07
same,relative viability,NCI-H1395; first compound 2.53 µM,0.94
same,relative viability,NCI-H1915; first compound 0.08 µM,0.985
same,relative viability,NCI-H1915; first compound 0.8 µM,0.947
same,relative viability,NCI-H1915; first compound 2.53 µM,1.04
same,relative viability,NCI-H2023; first compound 0.08 µM,1.23
same,relative viability,NCI-H2023; first compound 0.253 µM,0.431
same,relative viability,NCI-H2023; first compound 0.8 µM,0.827
same,relative viability,NCI-H2023; first compound 2.53 µM,0.913
same,relative viability,A-427; first compound 0.08 µM,1.03
same,relative viability,A-427; first compound 0.253 µM,0.942
same,relative viability,A-427; first compound 0.8 µM,1.09
same,relative viability,A-427; first compound 2.53 µM,1.03
same,relative viability,NCI-H661; first compound 0.08 µM,0.523
same,relative viability,NCI-H661; first compound 0.253 µM,0.452
same,relative viability,NCI-H661; first compound 0.8 µM,0.449
same,relative viability,NCI-H661; first compound 2.53 µM,0.54
same,relative viability,NCI-H3122; first compound 0.08 µM,0.977
same,relative viability,NCI-H3122; first compound 0.253 µM,0.933
same,relative viability,NCI-H3122; first compound 0.8 µM,0.997
same,relative viability,NCI-H3122; first compound 2.53 µM,1.03
same,relative viability,NCI-H596; first compound 0.08 µM,1.04
same,relative viability,NCI-H596; first compound 0.253 µM,0.994
same,relative viability,NCI-H596; first compound 0.8 µM,1.09
same,relative viability,NCI-H596; first compound 2.53 µM,1.02
same,relative viability,HOP-62; first compound 0.08 µM,1.01
same,relative viability,HOP-62; first compound 0.253 µM,0.902
same,relative viability,HOP-62; first compound 0.8 µM,1.05
same,relative viability,HOP-62; first compound 2.53 µM,1.04
same,relative viability,SK-MES-1; first compound 0.08 µM,0.514
same,relative viability,SK-MES-1; first compound 0.253 µM,0.474
same,relative viability,SK-MES-1; first compound 0.8 µM,0.439
same,relative viability,SK-MES-1; first compound 2.53 µM,0.559
same,relative viability,HCC-366; first compound 0.08 µM,0.989
same,relative viability,HCC-366; first compound 0.253 µM,0.951
same,relative viability,HCC-366; first compound 0.8 µM,1.08
same,relative viability,HCC-366; first compound 2.53 µM,0.935
same,relative viability,NCI-H358; first compound 0.08 µM,0.43
same,relative viability,NCI-H358; first compound 0.253 µM,0.49
same,relative viability,NCI-H358; first compound 0.8 µM,0.412
same,relative viability,NCI-H358; first compound 2.53 µM,0.401
same,relative viability,COR-L23; first compound 0.08 µM,0.924
same,relative viability,COR-L23; first compound 0.253 µM,0.856
same,relative viability,COR-L23; first compound 0.8 µM,0.862
same,relative viability,COR-L23; first compound 2.53 µM,0.905
same,relative viability,EKVX; first compound 0.08 µM,0.235
same,relative viability,EKVX; first compound 0.253 µM,0.222
same,relative viability,EKVX; first compound 2.53 µM,0.224
same,relative viability,NCI-H1650; first compound 0.08 µM,0.842
same,relative viability,NCI-H1650; first compound 0.253 µM,0.668
same,relative viability,NCI-H1650; first compound 0.8 µM,0.387
same,relative viability,NCI-H1650; first compound 2.53 µM,0.555
same,relative viability,NCI-H2087; first compound 0.08 µM,1.16
same,relative viability,NCI-H2087; first compound 0.253 µM,0.729
same,relative viability,NCI-H2087; first compound 0.8 µM,1.39
same,relative viability,NCI-H2087; first compound 2.53 µM,0.979
same,relative viability,HCC-44; first compound 0.08 µM,0.99
same,relative viability,HCC-44; first compound 0.253 µM,0.858
same,relative viability,HCC-44; first compound 0.8 µM,0.989
same,relative viability,HCC-44; first compound 2.53 µM,1.06
same,relative viability,EPLC-272H; first compound 0.08 µM,1.08
same,relative viability,EPLC-272H; first compound 0.253 µM,0.88
same,relative viability,EPLC-272H; first compound 0.8 µM,0.599
same,relative viability,EPLC-272H; first compound 2.53 µM,0.946
Cc1cnc(-c2cnc(NCCNc3ccc(C#N)cn3)nc2-c2ccc(Cl)cc2Cl)[nH]1 + CC(C)C[C@H](NC(=O)[C@H](Cc1ccccc1)NC(=O)c1cnccn1)B(O)O [Bortezomib] (partner 0.002 µM),relative viability,NCI-H650; first compound 0.08 µM,0.707
same,relative viability,NCI-H650; first compound 0.253 µM,0.819
same,relative viability,NCI-H650; first compound 0.8 µM,0.838
same,relative viability,NCI-H650; first compound 2.53 µM,0.744
same,relative viability,LOU-NH91; first compound 0.08 µM,0.488
same,relative viability,LOU-NH91; first compound 0.253 µM,0.519
same,relative viability,LOU-NH91; first compound 0.8 µM,0.491
same,relative viability,LOU-NH91; first compound 2.53 µM,0.491
same,relative viability,HCC-78; first compound 0.08 µM,0.645
same,relative viability,HCC-78; first compound 0.253 µM,0.457
same,relative viability,HCC-78; first compound 0.8 µM,0.443
same,relative viability,HCC-78; first compound 2.53 µM,0.41
same,relative viability,NCI-H838; first compound 0.08 µM,0.853
same,relative viability,NCI-H838; first compound 0.253 µM,0.757
same,relative viability,NCI-H838; first compound 0.8 µM,0.889
same,relative viability,NCI-H838; first compound 2.53 µM,0.99
same,relative viability,NCI-H1734; first compound 0.08 µM,0.942
same,relative viability,NCI-H1734; first compound 0.253 µM,0.897
same,relative viability,NCI-H1734; first compound 0.8 µM,0.87
same,relative viability,NCI-H1734; first compound 2.53 µM,0.734
same,relative viability,NCI-H1915; first compound 0.08 µM,0.977
same,relative viability,NCI-H1915; first compound 0.8 µM,1.02
same,relative viability,NCI-H1915; first compound 2.53 µM,0.975
same,relative viability,NCI-H2023; first compound 0.08 µM,1.44
same,relative viability,NCI-H2023; first compound 0.253 µM,0.651
same,relative viability,NCI-H2023; first compound 0.8 µM,1.01
same,relative viability,NCI-H2023; first compound 2.53 µM,0.978
same,relative viability,A-427; first compound 0.08 µM,0.972
same,relative viability,A-427; first compound 0.253 µM,1.03
same,relative viability,A-427; first compound 0.8 µM,0.993
same,relative viability,A-427; first compound 2.53 µM,0.975
same,relative viability,NCI-H661; first compound 0.08 µM,0.951
same,relative viability,NCI-H661; first compound 0.253 µM,0.789
same,relative viability,NCI-H661; first compound 0.8 µM,0.836
same,relative viability,NCI-H661; first compound 2.53 µM,0.719
same,relative viability,NCI-H3122; first compound 0.08 µM,1.03
same,relative viability,NCI-H3122; first compound 0.253 µM,0.925
same,relative viability,NCI-H3122; first compound 0.8 µM,0.997
same,relative viability,NCI-H3122; first compound 2.53 µM,0.972
same,relative viability,NCI-H596; first compound 0.08 µM,1.19
same,relative viability,NCI-H596; first compound 0.253 µM,0.802
same,relative viability,NCI-H596; first compound 0.8 µM,1.09
same,relative viability,NCI-H596; first compound 2.53 µM,1.12
same,relative viability,ChaGo-K-1; first compound 0.08 µM,1.07
same,relative viability,ChaGo-K-1; first compound 0.253 µM,0.886
same,relative viability,ChaGo-K-1; first compound 0.8 µM,0.598
same,relative viability,ChaGo-K-1; first compound 2.53 µM,0.991
same,relative viability,HOP-62; first compound 0.08 µM,1.18
same,relative viability,HOP-62; first compound 0.253 µM,0.772
same,relative viability,HOP-62; first compound 0.8 µM,0.875
same,relative viability,HOP-62; first compound 2.53 µM,0.907
same,relative viability,HCC-366; first compound 0.08 µM,1.09
same,relative viability,HCC-366; first compound 0.253 µM,0.989
same,relative viability,HCC-366; first compound 0.8 µM,0.967
same,relative viability,HCC-366; first compound 2.53 µM,1.01
same,relative viability,COR-L23; first compound 0.08 µM,1.04
same,relative viability,COR-L23; first compound 0.253 µM,0.997
same,relative viability,COR-L23; first compound 0.8 µM,1.14
same,relative viability,COR-L23; first compound 2.53 µM,0.943
same,relative viability,EKVX; first compound 0.08 µM,0.93
same,relative viability,EKVX; first compound 0.253 µM,0.948
same,relative viability,EKVX; first compound 0.8 µM,0.975
same,relative viability,EKVX; first compound 2.53 µM,0.961
same,relative viability,NCI-H1650; first compound 0.08 µM,0.207
same,relative viability,NCI-H1650; first compound 0.253 µM,0.214
same,relative viability,NCI-H1650; first compound 0.8 µM,0.24
same,relative viability,NCI-H1650; first compound 2.53 µM,0.207
same,relative viability,NCI-H2087; first compound 0.08 µM,0.997
same,relative viability,NCI-H2087; first compound 0.253 µM,0.683
same,relative viability,NCI-H2087; first compound 0.8 µM,0.771
same,relative viability,NCI-H2087; first compound 2.53 µM,0.808
same,relative viability,HCC-44; first compound 0.08 µM,0.851
same,relative viability,HCC-44; first compound 0.253 µM,0.855
same,relative viability,HCC-44; first compound 0.8 µM,0.91
same,relative viability,HCC-44; first compound 2.53 µM,0.932
same,relative viability,EPLC-272H; first compound 0.08 µM,0.938
same,relative viability,EPLC-272H; first compound 0.253 µM,0.84
same,relative viability,EPLC-272H; first compound 0.8 µM,0.834
same,relative viability,EPLC-272H; first compound 2.53 µM,0.903
